From patent publication US11691969B2, “Pyridazinones as PARP7 inhibtors” (Ribon Therapeutics, Inc., priority 2019, dated 2023)

Columns and labels:
PARP7 = PARP7 (Homo sapiens (Human), UniProt Q7Z3E1); assay: TR-FRET assay: displacement of biotinylated Probe A from the TIPARP active site (Enzymatic Assay for Inhibition of PARP7); assay type: binding; settings: TIPARP 6 nM, Probe A 2 nM, 25° C.
In short: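 6 nM His-tagged TIPARP and 2 nM biotinylated Probe A preincubated with compound 30 min at 25 °C in HEPES pH 8 buffer, then 4 nM ULight-anti-6×His and 0.25 nM Eu-streptavidin added for 30 min more. 665/615 nm ratio normalised to DMSO and 100 μM reference inhibitor controls; IC50 from 4-parameter fit.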

NCI-H1373 cells = assay: Tumor growth in human lung cancer model NCI-H1373 (subcutaneous xenograft); assay type: in vivo; settings: 100 mg/kg PO QD*28 days, NCI-H1373 tumors in CB-17 SCID mice, compared to vehicle (50% Labrasol)
From the text: Example B. PARP7 Inhibitors' Affect on Tumor Growth in Human Lung Cancer Models NCI-H1373
In this study, CB-17 SCID mice were inoculated subcutaneously at the right flank with NCI-H1373 cells for tumor development. Six days after tumor inoculation, 20 mice with tumor size ranging from 105-160 mm^3 (average tumor size 132 mm^3) were selected and assigned into 2 groups using stratified randomization with 10 mice in each group based upon their tumor volumes. The treatments were started from the next day post randomization (defined randomization day as day 0), and the mice were treated with vehicle (50% Labrasol), the compound of Example 57 (100 mg/kg PO. QD*28 days). The tumor sizes were measured three times per week during the treatment. The entire study was terminated on day 28.
Mean tumor volume and SEM were plotted (FIG. 1). Statistical significance, calculated using two-way ANOVA combined with Bonferroni post-test in which treatment group was compared to vehicle control, is indicated by an asterisk.

PARP7, sequence (Q7Z3E1 whole entry): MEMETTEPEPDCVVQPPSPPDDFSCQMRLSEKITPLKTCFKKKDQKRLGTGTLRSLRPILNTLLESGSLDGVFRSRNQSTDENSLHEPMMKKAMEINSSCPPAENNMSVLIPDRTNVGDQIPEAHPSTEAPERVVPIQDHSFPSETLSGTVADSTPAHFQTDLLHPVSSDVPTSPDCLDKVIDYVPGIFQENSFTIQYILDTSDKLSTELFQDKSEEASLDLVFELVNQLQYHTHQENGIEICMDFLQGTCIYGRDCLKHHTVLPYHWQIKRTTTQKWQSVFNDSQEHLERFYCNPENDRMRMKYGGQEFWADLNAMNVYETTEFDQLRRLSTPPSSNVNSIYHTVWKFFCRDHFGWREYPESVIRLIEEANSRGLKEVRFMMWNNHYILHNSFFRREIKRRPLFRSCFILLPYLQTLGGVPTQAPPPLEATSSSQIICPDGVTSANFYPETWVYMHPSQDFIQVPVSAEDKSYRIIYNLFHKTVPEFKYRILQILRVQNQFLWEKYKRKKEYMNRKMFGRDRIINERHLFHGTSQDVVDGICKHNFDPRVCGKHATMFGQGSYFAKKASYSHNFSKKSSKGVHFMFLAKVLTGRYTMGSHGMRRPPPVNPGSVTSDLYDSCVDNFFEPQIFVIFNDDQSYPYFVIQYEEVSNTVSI

IC50 (PARP7)	SMILES	tumor growth (mean tumor volume) (NCI-H1373 cells)
< 100 nM	C[C@@H](CO[C@@H]1CCN([C@@H]2CCN(c3ncc(C(F)(F)F)cn3)C[C@H]2O)C1=O)Nc1cn[nH]c(=O)c1C(F)(F)F [Example 57, 5-(((S)-1-(((R)-1-((3R,4R)-3-hydroxy-1-(5-(trifluoromethyl)pyrimidin-2-yl)piperidin-4-yl)-2-oxopyrrolidin-3-yl)oxy)propan-2-yl)amino)-4-(trifluoromethyl)pyridazin-3(2H)-one]	significantly reduce tumor growth
< 100 nM	C[C@@H](O)[C@@H](CO[C@@H]1CCN(C2CCN(c3ncc(C(F)(F)F)cn3)CC2)C1=O)Nc1cn[nH]c(=O)c1C(F)(F)F [Example 67, 5-(((2R,3R)-3-hydroxy-1-(((R)-2-oxo-1-(1-(5-(trifluoromethyl)pyrimidin-2-yl)piperidin-4-yl)pyrrolidin-3-yl)oxy)butan-2-yl)amino)-4-(trifluoromethyl)pyridazin-3(2H)-one]	
< 100 nM	C[C@@H](CO[C@@H]1CCN(C2CCN(c3ncc(C(F)(F)F)cn3)CC2C(N)=O)C1=O)Nc1cn[nH]c(=O)c1C(F)(F)F (stereo partly drawn) [Example 68, 4-((R)-2-oxo-3-((S)-2-((6-oxo-5-(trifluoromethyl)-1,6-dihydropyridazin-4-yl)amino)propoxy)pyrrolidin-1-yl)-1-(5-(trifluoromethyl)pyrimidin-2-yl)piperidine-3-carboxamide]	
< 100 nM	C[C@@H](CO[C@@H]1CCN(C2CCN(c3ncc(C(F)(F)F)cn3)CC2C#N)C1=O)Nc1cn[nH]c(=O)c1C(F)(F)F (stereo partly drawn) [Example 69, 4-((R)-2-oxo-3-((S)-2-((6-oxo-5-(trifluoromethyl)-1,6-dihydropyridazin-4-yl)amino)propoxy)pyrrolidin-1-yl)-1-(5-(trifluoromethyl)pyrimidin-2-yl)piperidine-3-carbonitrile]	
